Test results reported in patent US12600712B2 (Hoffmann-La Roche Inc., priority 2020, dated 2026).

The compounds below were run against T1, human Autotaxin (ATX) (Homo sapiens, UniProt Q13822) (assay: Human ATX enzyme inhibition assay (LPC substrate, choline oxidase/HRP/Amplex Red coupled format)). Conditions: recombinant hATX 1 nM, 18:1 LPC 30 μM, fluorescence at 90 min minus 5 min.
T1 construct: used as template in overlapping PCR to generate a full length human ENPP2 ORF with or without a 3′-6×His tag; 6xHis (C); made in house; host or cells: FreeStyle 293-F cells (transient transfection, protein purified from culture supernatant)
Type: biochemical
Description: Human ATX Enzyme Inhibition Assay
To identify inhibitors of the human Autotaxin (ATX) enzyme an in-vitro biochemical profiling assay has been developed using lysophosphatidylcholine (LPC) as substrate and recombinant enzyme. ATX activity is assayed via a coupled enzyme format where choline produced from LPC hydrolysis is converted to hydrogen peroxide by choline oxidase (CO). Hydrogen peroxide is in turn used as a co-substrate by horseradish peroxidase (HRP) to oxidise Amplex Red® and generate the red-fluorescent product, Resorufin.
50 mM Tris-HCl (pH 8.0); 120 mM NaCl; 20 mM CaCl2); 5 mM KCl; 1 mM MgCl2; 0.01% Triton X-100, sterile-filtered and stored at 4° C.
50 mM Tris-HCl (pH 8.0); 150 mM NaCl human Autotaxin (hATX): 0.97 mg/ml (9.718 μM) Molecular weight 99817. Working solution of 1.5 μM used in this assay.
100 mM 18:1 LPC dissolved in reagent dilution-buffer.
500 U/ml Choline Oxidase in reagent dilution buffer.
2540 U/ml Horseradish Peroxidase, in reagent dilution buffer (10.95 mg/ml).
20 mM Amplex Red (10-Acetyl-3,7-dihydroxy-phenoxazin) in DMSO.
Black, 384-well plate, black with clear bottom, non-treated surface.
Test compounds are received pre-diluted in DMSO as an 11-point concentration-response (0.5 mM highest concentration; 1 in 3.162 dilution). Test compounds are pre-diluted 1:1 (10 μL compound+10 μL assay buffer) in a 96-well conical bottomed plate prior to use.
ATX is diluted to 2.2 nM in assay buffer. Choline oxidase and horseradish peroxidase are diluted to 7.3 U/ml and 14.7 U/ml, respectively. 18:1 LPC and Amplex Red® are diluted to 110 μM and 183.3 μM, respectively (solution protected from light). 2.2 μL of compound pre-dilution or 50% DMSO is added to the reaction plate followed by 25 μL of ATX or assay buffer (negative control). Assay plate is mixed and incubated at room temperature for 10 mins. 15 μL of choline oxidase/horseradish peroxidase is then added. To initiate the reaction 15 μL of LPC 18:1/Amplex Red is added. Assay plate is mixed and incubated at room temperature in the dark. Fluorescence is measured at 5 mins (for background subtraction) and 90 mins.
• hATX: 1 nM • 18:1 LPC: 30 μM • Choline Oxidase: 2 U/ml • Horse Radish Peroxidase: 4 U/ml • Amplex Red®: 50 μM • DMSO: 2%
Fluorescence at 5-minutes is subtracted from the 90-minute end point data and normalized with respect to the positive control. IC50 values are calculated.
Results in the enzymatic ATX inhibition assay are provided for compounds of formula (I).
With `Cc1c(Cl)ccc2c1CC(Nc1ncc(C(=O)N3CCC34COC4)cn1)C2` (stereo not shown) [Example 6] the IC50 was 101 nM. `C[C@]1(O)C[C@]2(CCN2C(=O)c2cnc(N[C@H]3Cc4cc(Cl)cc(C#N)c4C3)nc2)C1` [Example 14, (cis)-6-chloro-2-(S)-((5-(6-hydroxy-6-methyl-1-azaspiro[3.3]heptane-1-carbonyl)pyrirnidin-2-yl)amino)-2,3-dihydro-1H-indene-4-carbonitrile] showed an IC50 of 5.5 nM. In the case of `O=C(c1cnc(NC2Cc3cc(Cl)cc(F)c3C2)nc1)N1CCC12COC2` (single isomer, unassigned) [Example 16, (S or R)-(2-((6-chloro-4-fluoro-2,3-dihydro-1H-inden-2-yl)amino)pyrimidin-5-yl)(6-oxa-1-azaspiro[3.3]heptan-1-yl)methanone], the IC50 is reported as 45.1 nM. Compound `O=C(c1cnc(NC2Cc3cc(Cl)cc(OC(F)F)c3C2)nc1)N1CCC12COC2` (stereo not shown) [Example 5] has an IC50 of 224 nM. `O=C(c1cnc(NC2Cc3cccc(Cl)c3C2)nc1)N1CCC12COC2` (stereo not shown) [Example 15, (2-((4-chloro-2,3-dihydro-1H-inden-2-yl)amino)pyrimidin-5-yl)(6-oxa-1-azaspiro[3.3]heptan-1-yl)methanone] was tested, and the IC50 was 282 nM. For `N#Cc1cc(Cl)cc2c1C[C@@H](Nc1ncc(C(=O)N3CCC34COC4)cn1)C2` [Example 11, (S)-2-((5-(6-oxa-1-azaspiro[3.3]heptane-1-carbonyl)pyrimidin-2-yl)amino)-6-chloro-2,3-dihydro-1H-indene-4-carbonitrile], the IC50 was 7.4 nM. `O=C(c1cnc(NC2Cc3cc(Cl)cc(F)c3C2)nc1)N1CCC12COC2` (racemic) [Example 8, (2-((6-chloro-4-fluoro-2,3-dihydro-1H-inden-2-yl)amino)pyrimidin-5-yl)(6-oxa-1-azaspiro[3.3]heplan-l-yl)melhanone] was tested, and the IC50 was 111 nM. `O=C(c1cnc(NC2Cc3ccc(Cl)c(Cl)c3C2)nc1)N1CCC12COC2` (stereo not shown) [Example 3, (2-((4,5-dichloro-2,3-dihydro-1H-inden-2-yl)amino)pyrimidin-5-yl)(6-oxa-1-azaspiro[3.3]heptan-1-yl)methanone] gave an IC50 of 128 nM. With `O=C(c1cnc(NC2Cc3cc(Cl)cc(C(F)(F)F)c3C2)nc1)N1CCC12COC2` (stereo not shown) [Example 10, (2-((6-chloro-4-(trifluoromethyl)-2,3-dihydro-1 H-inden-2-yl)amino)pyrimidin-5-yl)(6-oxa-1-azaspiro[3.3]heptan-1-yl)melhanone] the IC50 was 184 nM. Work on `CC#Cc1cc(Cl)cc2c1CC(Nc1ncc(C(=O)N3CCC34COC4)cn1)C2` (stereo not drawn) [Example 7, (2-((6-chloro-4-(prop-l-yn-1-yl)-2,3-dihydro-lH-inden-2-yl)amino)pyrimidin-5-yl)(6-oxa-1-azaspiro[3.3]heplan-l-yl)methanone] yielded an IC50 of 23.7 nM. `O=C(c1cnc(NC2Cc3cc(Cl)cc(Cl)c3C2)nc1)N1CCC12COC2` (stereo not shown) [Example 1] showed an IC50 of 13 nM. `Cc1cc(Cl)cc2c1CC(Nc1ncc(C(=O)N3CCC34COC4)cn1)C2` (stereo not shown) [Example 2, (2-((6-chloro-4-methyl-2,3-dihydro-1H-inden-2-yl)amino)pyrimidin-5-yl)(6-oxa-1-azaspiro[3.3]heptan-1-yl)methanone] gave an IC50 of 62 nM. `O=C(c1cnc(NC2Cc3ccc(Cl)c(F)c3C2)nc1)N1CCC12COC2` (stereo not drawn) [Example 9, (2-((5-chloro-4-fluoro-2,3-dihydro-lH-inden-2-yl)amino)pyrimidin-5-yl)(6-oxa-1-azaspiro[3.3]heplan-l-yl)methanone] was tested, and the IC50 was 123 nM. `CC1(C)CCN1C(=O)c1cnc(N[C@H]2Cc3cc(Cl)cc(C#N)c3C2)nc1` [Example 12, (S)-6-chloro-2-((5-(2,2-dimethylazetidine-1-carbonyl)pyrimidin-2-yl)amino)-2.3-dihydro-1H-indene-4-carbonitrile] was tested, and the IC50 was 6.5 nM. In the case of `N#Cc1cc(Cl)cc2c1CC(Nc1ncc(C(=O)N3CCC34COC4)cn1)C2` (stereo not shown) [Example 4, 2-((5-(6-oxa-1-azaspiro[3.3]heptane-1-carbonyl)pyrimidin-2-yl)amino)-6-chloro-2,3-dihydro-1H-indene-4-carbonitrile], the IC50 is reported as 20.8 nM. `N#Cc1cc(Cl)cc2c1C[C@@H](Nc1ncc(C(=O)N3CCC34CC(F)(F)C4)cn1)C2` [Example 13, (S)-6-chloro-2-((5-(6,6-difluoro-1-azaspiro[3.3]heptane-1-carbonyl)pyrimidin-2-yl)amino)-2,3-dihydro-1H-indene-4-carbonitrile] was tested, and the IC50 was 3 nM.
